In patent US5258406A, “Sulfonimidamides” (priority 1992, dated 1993):
Read-outs that look alike come from different tables or passages of the source.

Tested on: 6C3HED lymphosarcoma
Test: animal or person
Format: in vivo
Settings: for inhibition in vivo at 18.75 mg/kg: read-out: % inhibition of tumor growth, oral, 18.75 mg/kg, BIDX 8; for inhibition in vivo at 37.5 mg/kg: read-out: % inhibition of tumor growth, oral, 37.5 mg/kg, BIDX 8; for inhibition in vivo at 75 mg/kg: read-out: % inhibition of tumor growth, oral, 75 mg/kg, BIDX 8
Procedure: The compounds were tested in C3H mice bearing a 6C3HED lymphosarcoma, also known as the Gardner lymphosarcoma (GLS), and in a variety of human tumor xenografts in CD1 nu/nu mice, including CX-1, LX-1, HXGC3, and VRC5. The 6C3HED lymphosarcoma was obtained from the Division of Cancer Treatment, National […] Institute, Tumor Bank, maintained at E. G. and G. Mason Research (Worcester, Mass.). The CX-1 human colon carcinoma and the LX-1 human lung carcinoma xenografts were obtained from the National Cancer Institute. The HXGC3 and VRC5 human colon xenografts were obtained from Dr. P. J. Houghton, St. Jude Children's Hospital in Memphis (see Br. J. Cancer, 37, 213 (1978)). First passage tumor was stored in liquid nitrogen using standard techniques. The transplanted tumor was reestablished from the Tumor Bank every six months or as needed. The tumor was maintained by serial passage twice weekly in C3H mice.
In the procedure the tumor was removed from passage animals and minced into 1- to 3-mm square fragments using sterile techniques. Tumor pieces were checked for sterility using both Antibiotic Medium 1 and Brain Heart Infusion (Difco, Detroit, Mich.). Recipient mice were shaved and tumor pieces were implanted subcutaneously in the auxiliary region by trocar. Drug therapy on the appropriate schedule was initiated on the day after tumor implant for 6C3HED and after a seven (7) day delay for xenografts (or other delay as noted in Table 2). The compound being tested was mixed with 2.5% Emulphor EL620 from GAF Corporation (1:40 dilution in saline). Food and water were provided ad libitium. The drug was administered orally in 0.5 ml of 2.5% Emulphor (unless otherwise indicated). The tumor was measured the day after treatment ended with two dimensional measurements (width and length) of the tumor taken using automated digital calipers interfaced to a microcomputer. Approximate weight for the tumor was calculated using the following formula [Worzalla, J. F., et al., Invest. New Drugs, 8, 241 (1990], (tumor weight in mg)=(width in mm)^2 ×(length in mm)/2.
At least one control group of an equal number of mice was treated with the same volume of 2.5% Emulphor only. The percent inhibition was determined by subtracting the ratio of the mean tumor size of the test group relative to the control group from one and multiplying the result times 100.
The results of several experiments in mice bearing a 6C3HED lymphosarcoma (or other tumor where indicated) when the indicated compounds were administered are provided in Table 2. In Table 2, column 1 gives the Example number of the compound used, column 2 lists the dose level in mg/kg, column 3 provides the percent inhibition of tumor growth, column 4 gives the number of mice which died relative to the total number of animals in the group, column 5 gives the method of administration of the compound, and column 6 gives the dosage schedule. The protocol used with other tumors was the same as with the 6C3HED lymphosarcoma.

[1] = Mus musculus, 6C3HED, ip, read-out: % inhibition of tumor growth, IP, 150 mg/kg, DX 8
[2] = Mus musculus, 6C3HED, ip, read-out: % inhibition of tumor growth, IP, 300 mg/kg, DX 8
[3] = Mus musculus, 6C3HED, po, read-out: % inhibition of tumor growth, oral, 150 mg/kg, BIDX 8
[4] = Mus musculus, 6C3HED, po, read-out: % inhibition of tumor growth, oral, 300 mg/kg, BIDX 8
[5] = Mus musculus, 6C3HED, po, read-out: % inhibition of tumor growth, oral, 150 mg/kg, DX 8
[6] = Mus musculus, 6C3HED, po, read-out: % inhibition of tumor growth, oral, 300 mg/kg, DX 8

Row | SMILES | Tox/Tot (mice which died / total) (IP, 150 mg/kg, DX 8) | Tox/Tot (mice which died / total) (IP, 300 mg/kg, DX 8) | inhibition in vivo at 150 mg/kg [1] | inhibition in vivo at 300 mg/kg [2] | inhibition in vivo at 150 mg/kg [3] | inhibition in vivo at 300 mg/kg [4] | Tox/Tot (mice which died / total) (oral, 150 mg/kg, BIDX 8) | Tox/Tot (mice which died / total) (oral, 300 mg/kg, BIDX 8) | inhibition in vivo at 150 mg/kg [5] | inhibition in vivo at 300 mg/kg [6] | Tox/Tot (mice which died / total) (oral, 150 mg/kg, DX 8) | Tox/Tot (mice which died / total) (oral, 300 mg/kg, DX 8) | also measured
1 | CCN=S(=O)(NC(=O)Nc1ccc(Cl)cc1)c1ccc(C)cc1 (stereo not shown) [Example 4, N-[[(4-chlorophenyl)amino]carbonyl]-N'-ethyl-4-methylbenzenesulfonimidamide] | 0/10 | 0/10 | 10% | 18% | 87% | 96% | 0/10 | 0/10 | – | – | – | – | –
2 | CCCNS(=O)(=NC(=O)Nc1ccc(Cl)cc1)c1ccc(C)cc1 (stereo not shown) [Example 5] | 0/10 | 0/10 | 34% | 44% | – | – | – | – | 64% | 69% | 0/10 | 0/10 | –
3 | Cc1ccc(S(=O)(=NC(C)C)NC(=O)Nc2ccc(Cl)cc2)cc1 (stereo not shown) [Example 6, N-[[(4-chlorophenyl)amino]carbonyl]-N'-(1-methylethyl)-4-methylbenzenesulfonimidamide] | – | – | – | – | 93% | 99% | – | 2/10 | – | – | – | – | inhibition in vivo at 18.75 mg/kg (Mus musculus, 6C3HED, po): 18%; inhibition in vivo at 37.5 mg/kg (Mus musculus, 6C3HED, po): 60%; inhibition in vivo at 75 mg/kg (Mus musculus, 6C3HED, po): 86%; Tox/Tot (mice which died / total) (oral, 18.75 mg/kg, BIDX 8): 0/10; Tox/Tot (mice which died / total) (oral, 37.5 mg/kg, BIDX 8): 0/10; Tox/Tot (mice which died / total) (oral, 75 mg/kg, BIDX 8): 0/10; % inhibition of tumor growth (oral, 150 mg/kg, BIDX 8): 99%
4 | Cc1ccc(S(=O)(=NC(=O)Nc2ccc(Cl)cc2)NCC(C)C)cc1 (stereo not shown) [Example 8] | – | – | – | – | 97% | – | – | 10/10 | – | – | – | – | inhibition in vivo at 18.75 mg/kg (Mus musculus, 6C3HED, po): 29%; inhibition in vivo at 25 mg/kg (Mus musculus, 6C3HED, po, read-out: % inhibition of tumor growth, oral, 25 mg/kg, DX 8): 28%; inhibition in vivo at 37.5 mg/kg (Mus musculus, 6C3HED, po): 60%; inhibition in vivo at 50 mg/kg (Mus musculus, 6C3HED, po, read-out: % inhibition of tumor growth, oral, 50 mg/kg, DX 8): 31%; inhibition in vivo at 75 mg/kg (Mus musculus, 6C3HED, po): 85%; inhibition in vivo at 100 mg/kg (Mus musculus, 6C3HED, po, read-out: % inhibition of tumor growth, oral, 100 mg/kg, DX 8): 51%; Tox/Tot (mice which died / total) (oral, 18.75 mg/kg, BIDX 8): 0/10; Tox/Tot (mice which died / total) (oral, 25 mg/kg, DX 8): 0/10; Tox/Tot (mice which died / total) (oral, 37.5 mg/kg, BIDX 8): 0/10; Tox/Tot (mice which died / total) (oral, 50 mg/kg, DX 8): 0/10; Tox/Tot (mice which died / total) (oral, 75 mg/kg, BIDX 8): 0/10; Tox/Tot (mice which died / total) (oral, 100 mg/kg, DX 8): 0/10; % inhibition of tumor growth (oral, 150 mg/kg, BIDX 8): 98%; % inhibition of tumor growth (oral, 300 mg/kg, BIDX 8): TOX
5 | CCCCCCNS(=O)(=NC(=O)Nc1ccc(Cl)cc1)c1ccc(C)cc1 (stereo not shown) [Example 9] | – | – | – | – | 65% | 79% | 0/10 | 2/10 | – | – | – | – | –
6 | Cc1ccc(S(=O)(=NC(=O)Nc2ccc(Cl)cc2)NCCO)cc1 (stereo not shown) [Example 10] | – | – | – | – | – | – | – | – | 40% | 60% | 0/10 | 0/10 | –
7 | Cc1ccc(S(=O)(=NC(=O)Nc2ccc(Cl)cc2)NCCCO)cc1 (stereo not shown) [Example 11] | – | – | – | – | 65% | 89% | 0/10 | 2/10 | – | – | – | – | –
8 | Cc1ccc(S(=O)(=NC(=O)Nc2ccc(Cl)cc2)NCc2ccccc2)cc1 (stereo not shown) [Example 12] | – | – | – | – | 73% | 87% | 0/9 | 1/10 | – | – | – | – | –
9 | Cc1ccc(S(=O)(=NC(=O)Nc2ccc(Cl)cc2)NCCc2ccccc2)cc1 (stereo not shown) [Example 13] | – | – | – | – | 39% | 48% | 0/10 | 0/10 | – | – | – | – | –
10 | Cc1ccc(S(=O)(=NC(=O)Nc2ccc(Cl)cc2)Nc2ccccc2)cc1 (stereo not shown) [Example 14] | 2/10 | 3/10 | 1% | 38% | – | – | – | – | 0% | 5% | 0/10 | 0/10 | –
